Data taken from patent US20230035723A1, “Treatment of Pancreatic Cancer” (SynCore Biotechnology Co., Ltd., priority 2017, published 2023).
Where a name gives a salt, the structure may show the parent alone. Read-outs that look alike come from different tables or passages of the source.

Columns and labels:
[1] = system: PAXF 1998; assay: Cell lines exhibiting drug resistance (IC50); assay type: cell-based
[2] = system: PAXF PANC-1; assay: Cell lines exhibiting drug resistance (IC50); assay type: cell-based
[3] = system: PAXF 1986; assay: Cell lines exhibiting drug resistance (IC50); assay type: cell-based
[4] = system: pancreatic cancer; details: pancreatic cancer patients; P=0.002; cited from earlier work
[5] = system: PAXF 2035; assay: Cell lines exhibiting drug resistance (IC50); assay type: cell-based
[6] = system: PAXF 546; assay: Cell lines exhibiting drug resistance (IC50); assay type: cell-based
[7] = system: PAXF 2005; assay: Cell lines exhibiting drug resistance (IC50); assay type: cell-based
[8] = system: PAXF HPAC; assay: Cell lines exhibiting drug resistance (IC50); assay type: cell-based
[9] = system: PAXF 2059; assay: Cell lines exhibiting drug resistance (IC50); assay type: cell-based
[10] = system: PAXF CAPAN-2; assay: Cell lines exhibiting drug resistance (IC50); assay type: cell-based
[11] = system: metastatic pancreatic cancer; details: first-line therapy of metastatic pancreatic cancer; cited from earlier work
[12] = system: pancreatic cancer; details: phase III study, pancreatic cancer patients; cited from earlier work
[13] = system: unresectable pancreatic cancer; details: phase III study; cited from earlier work
[14] = system: metastatic pancreatic cancer; details: first-line therapy; cited from earlier work

| Compound | IC50 [1] [µM] | IC50 ([2]; Homo sapiens) [µM] | IC50 [3] [µM] | IC50 [5] [µM] | IC50 ([6]; Homo sapiens, PAXF546) [µM] | IC50 [2] [µM] | IC50 [6] [µM] | further results |
| --- | --- | --- | --- | --- | --- | --- | --- | --- |
| O=c1[nH]cc(F)c(=O)[nH]1 [5-Fluorouracil] | 7.48 | 3.23 | 2.25 | 105 | 1.25 |  |  | median overall survival [4]: 4.4 months; IC50 [7]: 10.3 µM |
| CC(C)C[C@H](NC(=O)[C@H](Cc1ccccc1)NC(=O)c1cnccn1)B(O)O [Bortezomib] |  | 0.018 |  |  | 0.005 |  |  |  |
| N.N.O=C([O-])C1(C(=O)[O-])CCC1.[Pt+2] [Carboplatin] |  |  |  |  |  | 15.6 | 17.1 |  |
| N.N.[Cl][Pt][Cl] [Cisplatin] | 75.7 |  | 4.83 | 46 |  | 7.44 | 11.5 | IC50 [8]: 31.7 µM; IC50 [9]: 41 µM; IC50 [10]: 62.1 µM; IC50 ([7]; PAXF 2005): 10.8 µM |
| CC(=O)O[C@@]12CO[C@@H]1C[C@H](O)[C@@]1(C)C(=O)[C@H](O)C3=C(C)[C@@H](OC(=O)[C@H](O)[C@@H](NC(=O)OC(C)(C)C)c4ccccc4)C[C@@](O)([C@@H](OC(=O)c4ccccc4)[C@H]21)C3(C)C [Docetaxel] | 0.015 |  | 0.006 | 0.004 | 0.104 |  |  | IC50 [9]: 0.1 µM; IC50 [7]: 0.1 µM |
| COc1cccc2c1C(=O)c1c(O)c3c(c(O)c1C2=O)C[C@@](O)(C(=O)CO)C[C@@H]3O[C@H]1C[C@H](N)[C@H](O)[C@H](C)O1 [Doxorubicin HCl] | 1.23 | 0.049 | 0.059 | 0.795 | 0.134 |  |  | IC50 [9]: 0.131 µM; IC50 [7]: 0.251 µM |
| O=NN(CCCl)C(=O)NCCO [Elmustin] |  |  |  |  |  | 375 | 722 |  |
| COc1cc([C@@H]2c3cc4c(cc3[C@@H](O[C@@H]3O[C@@H]5CO[C@@H](C)O[C@H]5[C@H](O)[C@H]3O)[C@H]3COC(=O)[C@H]23)OCO4)cc(OC)c1O [Etoposide] |  | 1.5 |  |  | 7.41 |  |  |  |
| O=NN(CCCl)C(=O)NC1CCCCC1 [Lomustine] |  | 43.6 |  |  | 142 |  |  |  |
| CN(Cc1cnc2nc(N)nc(N)c2n1)c1ccc(C(=O)N[C@@H](CCC(=O)O)C(=O)O)cc1 [Methotrexate Hydrat] | 0.16 |  |  |  |  | 0.038 | 0.129 | IC50 [9]: 0.031 µM; IC50 ([7]; PAXF 2005): 10 µM |
| CN(Cc1cnc2nc(N)nc(N)c2n1)c1ccc(C(=O)N[C@@H](CCC(=O)O)C(=O)O)cc1 [Methotrexate] |  | 10 |  |  | 0.066 |  |  |  |
| CO[C@@]12[C@H](COC(N)=O)C3=C(C(=O)C(C)=C(N)C3=O)N1C[C@@H]1N[C@@H]12 [Mitomycin C] | 0.987 |  | 0.188 | 0.678 |  | 1.12 | 0.465 | IC50 ([7]; PAXF 2005): 0.276 µM |
| O=C1c2c(O)ccc(O)c2C(=O)c2c(NCCNCCO)ccc(NCCNCCO)c21 [Mitoxantron 2HCl] | 0.24 |  | 0.035 | 0.067 |  | 0.01 | 0.187 | IC50 [9]: 0.035 µM; IC50 ([7]; PAXF 2005): 0.016 µM |
| O=C1[O][Pt]2([NH][C@@H]3CCCC[C@H]3[NH]2)[O]C1=O [Oxaliplatin] | 34.6 |  | 1.61 | 99.2 |  | 0.994 | 1.24 | IC50 ([7]; PAXF 2005): 12.5 µM |
| CC(=O)O[C@H]1C(=O)[C@@]2(C)[C@H]([C@H](OC(=O)c3ccccc3)[C@]3(O)C[C@H](OC(=O)[C@H](O)[C@@H](NC(=O)c4ccccc4)c4ccccc4)C(C)=C1C3(C)C)[C@]1(OC(C)=O)CO[C@@H]1C[C@@H]2O [Paclitaxel] | 0.117 | 0.046 | 0.204 | 0.144 | 0.441 |  |  | IC50 ([8]; Homo sapiens): 0.383 µM; IC50 [9]: 0.261 µM; IC50 ([10]; Homo sapiens): 0.444 µM; IC50 [7]: 0.312 µM |
| Nc1nc2[nH]cc(CCc3ccc(C(=O)N[C@@H](CCC(=O)O)C(=O)O)cc3)c2c(=O)[nH]1 [Pemetrexed, dinatrium] |  |  |  |  |  | 13 | 0.114 |  |
| CCCS(=O)(=O)Nc1ccc(F)c(C(=O)c2c[nH]c3ncc(-c4ccc(Cl)cc4)cc23)c1F [Vemurafenib] | 10.8 | 16.1 | 9.34 | 11.4 | 5.33 |  |  | IC50 [9]: 11.4 µM; IC50 [7]: 6.75 µM |
| CC[C@]1(O)C[C@@H]2CN(CCc3c([nH]c4ccccc34)[C@@](C(=O)OC)(c3cc4c(cc3OC)N(C)[C@H]3[C@@](O)(C(N)=O)[C@H](O)[C@]5(CC)C=CCN6CC[C@]43[C@@H]65)C2)C1 [Vindesin sulfate] |  |  |  |  |  | 0.005 | 0.109 |  |
| Nc1ccn([C@@H]2O[C@H](CO)[C@@H](O)C2(F)F)c(=O)n1 [gemcitabine] |  |  |  |  |  |  |  | median overall survival [11]: 6.8 months; median overall survival [4]: 5.6 months; one-year survival [12]: 17%; median overall survival [13]: 8.8 months; median overall survival [14]: 6.7 months |
| Bleomycin sulfate |  |  |  |  |  | 0.149 | 10.7 |  |
| FOLFIRINOX |  |  |  |  |  |  |  | median overall survival [11]: 11.1 months |
| Vinorelbine bistartrate |  |  |  |  |  | 0.002 | 0.072 |  |

Continued, in another order:

| IC50 [1] [µM] | IC50 ([2]; Homo sapiens) [µM] | IC50 [3] [µM] | IC50 [5] [µM] | IC50 ([6]; Homo sapiens, PAXF546) [µM] | Compound | IC50 [2] [µM] | IC50 [6] [µM] | further results |
| --- | --- | --- | --- | --- | --- | --- | --- | --- |
|  | 0.158 |  |  | 4.64 | Nc1ccn([C@@H]2O[C@H](CO)[C@@H](O)[C@@H]2O)c(=O)n1 [Cytarabine] |  |  |  |
| 99.1 | 113 | 100 | 83.6 | 46.1 | C#Cc1cccc(Nc2ncnc3cc(OCCOC)c(OCCOC)cc23)c1 [Erlotinib HCl] |  |  | IC50 [7]: 52.7 µM |
| 0.158 | 5.22 | 0.008 | 1.49 | 0.097 | Nc1ccn([C@@H]2O[C@H](CO)[C@@H](O)C2(F)F)c(=O)n1 [Gemcitabine HCl] |  |  | IC50 ([8]; Homo sapiens): 0.421 µM; IC50 [9]: 0.015 µM; IC50 ([10]; Homo sapiens): 3.67 µM; IC50 [7]: 0.39 µM |
|  | 0.012 |  |  | 0.131 | CC(=O)[C@]1(O)Cc2c(O)c3c(c(O)c2[C@@H](O[C@H]2C[C@H](N)[C@H](O)[C@H](C)O2)C1)C(=O)c1ccccc1C3=O [Idarubicin] |  |  |  |
| 13.2 | 8.55 | 4.24 | 2.4 | 7.38 | CCN(CC)CCNC(=O)c1c(C)[nH]c(/C=C2\C(=O)Nc3ccc(F)cc32)c1C [Sunitinib malate] |  |  | IC50 [9]: 16.5 µM; IC50 [7]: 7.09 µM |
|  | 0.042 |  |  | 0.08 | CC[C@@]1(O)C(=O)OCc2c1cc1n(c2=O)Cc2cc3c(CN(C)C)c(O)ccc3nc2-1 [Topotecan HCl] |  |  |  |
|  | 2.02 |  |  | 48.1 | CS(=O)(=O)OC[C@H](O)[C@@H](O)COS(C)(=O)=O [Treosulfan] |  |  |  |
|  | 0.001 |  |  | 0.071 | CC[C@]1(O)C[C@@H]2CN(CCc3c([nH]c4ccccc34)[C@@](C(=O)OC)(c3cc4c(cc3OC)N(C)[C@H]3[C@@](O)(C(=O)OC)[C@H](OC(C)=O)[C@]5(CC)C=CCN6CC[C@]43[C@@H]65)C2)C1 [Vinblastine sulfate] |  |  |  |
| 0.008 | 0.003 | 0.3 | 0.462 | 0.247 | CC[C@]1(O)C[C@H]2CN(CCc3c([nH]c4ccccc34)[C@@](C(=O)OC)(c3cc4c(cc3OC)N(C=O)[C@H]3[C@@](O)(C(=O)OC)[C@H](OC(C)=O)[C@]5(CC)C=CCN6CC[C@]43[C@@H]65)C2)C1 [Vincristine sulfate] |  |  | IC50 [7]: 0.045 µM |
